The values below come from patent US11370771B2, “Inhibitors of TRPC6” (Boehringer Ingelheim International GmbH, priority 2018, dated 2022).

The target in assay [1] is T1, human TRPC6 (Homo sapiens, UniProt Q9Y210).
T1 construct: expressed in transfected cells
T1 sequence (Q9Y210 1-931): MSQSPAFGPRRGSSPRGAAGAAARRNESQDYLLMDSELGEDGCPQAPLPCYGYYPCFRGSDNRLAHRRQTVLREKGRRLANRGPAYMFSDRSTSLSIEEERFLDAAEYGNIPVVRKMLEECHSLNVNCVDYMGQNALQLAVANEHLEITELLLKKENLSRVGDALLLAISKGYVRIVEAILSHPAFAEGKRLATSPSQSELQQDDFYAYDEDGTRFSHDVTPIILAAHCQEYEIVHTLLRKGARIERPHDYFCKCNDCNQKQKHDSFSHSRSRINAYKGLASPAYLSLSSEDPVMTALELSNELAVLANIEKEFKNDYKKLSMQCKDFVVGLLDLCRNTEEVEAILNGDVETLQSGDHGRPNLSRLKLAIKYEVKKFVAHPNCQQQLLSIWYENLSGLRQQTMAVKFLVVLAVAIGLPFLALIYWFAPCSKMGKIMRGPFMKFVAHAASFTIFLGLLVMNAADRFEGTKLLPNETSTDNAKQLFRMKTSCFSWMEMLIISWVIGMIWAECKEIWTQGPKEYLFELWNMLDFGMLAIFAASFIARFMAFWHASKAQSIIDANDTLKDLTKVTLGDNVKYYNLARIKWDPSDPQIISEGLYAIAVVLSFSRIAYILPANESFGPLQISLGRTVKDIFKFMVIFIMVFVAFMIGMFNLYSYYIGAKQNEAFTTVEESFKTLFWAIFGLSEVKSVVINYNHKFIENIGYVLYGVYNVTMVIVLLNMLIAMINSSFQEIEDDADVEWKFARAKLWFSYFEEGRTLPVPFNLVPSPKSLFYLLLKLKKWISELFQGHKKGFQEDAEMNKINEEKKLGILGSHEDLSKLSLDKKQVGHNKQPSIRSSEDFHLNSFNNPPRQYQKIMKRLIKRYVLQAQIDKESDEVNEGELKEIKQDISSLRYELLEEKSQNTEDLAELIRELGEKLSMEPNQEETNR
Put plainly: High Throughput Screening Assay Method 1 (FLIPR membrane potential dye, OAG activation, HEK293 cells expressing human TRPC6). Conditions: antagonist effect against human TRPC6, 60 μM OAG, read-out: Fluorescence TRPC6 IC50. The assay is classed as cell-based. From the text: (§1) This screening assay measures TRPC6 (transient receptor potential cation channel, subfamily C, member 6) ion channel activation via addition either of the commercially available DAG ligand analogue OAG (1-oleoyl-2-acetyl-sn-glycerol) or of the TRPC6 agonist 1-[1-(4,5,6,7,8-pentahydrocyclohepta[2,1-d]thiophen-2-ylcarbonyl)-4-piperidyl]-3-hydrobenzimidazol-2-one (GSK1702934A). The assay utilizes a FLIPR membrane potential (FMP) dye from Molecular Devices, which is a voltage sensitive indicator with a fluorescent quencher. Changes in membrane potential as measured by the fluorescent signal increase during membrane depolarization provide a measurement of channel activity.
The commercially available HEK293 cell line expressing human TRPC6 channel (Axxam/PerkinElmer) is scaled up in bulk and frozen in liquid nitrogen. Frozen cell stocks are thawed and re-suspended in culture media as recommended by the manufacturer supplemented with 0.5 mg/ml of geneticin to promote retention of the TRPC6 construct. Cells are plated at a density of 15,000 cells/well in Greiner 384 well poly-D-lysine coated black clear bottom plates, and incubated for 18-20 h at 37° C. and 5% CO2. To initiate the assay, the growth media is removed using a plate washer and 25 ul of a FMP dye mix is added to each well. The 4× stock FMP dye from the manufacturer is diluted 1× with assay buffer (low calcium Tyrode's assay buffer: 130 mM NaCl, 5 mM KCl, 0.15 mM CaCl2), 1 mM MgCl2, 5 mM NaHCO3, 20 mM HEPES pH 7.4) containing 36 μM BAPTA/AM. The cells are incubated at room temperature (19-22° C.) for 30 minutes. For the screening assay, 5 uL of diluted compound stock is added to each well and incubated for 15 minutes at room temperature (19-22° C.). Using the Hamamatsu FDSS6000 or FDSS7000, 10 uL of the synthetic, membrane permeant analog of 1,2 diacylglycerol (DAG), 1-oleoyl-2-acetoyl-n-glycerol (OAG), is added and fluorescent readings taken every second from 50 seconds to 3 minutes. […] Controls and blanks consisted of HEK293 TRPC6 cells that are exposed to OAG. A reference inhibitor added along with the test compound is included as part of the blanks. This inhibitor suppresses the TRPC6 channel activation. These controls set the screening window, and “hits” are defined as those compounds inhibiting the membrane depolarization caused by OAG by at least 50%. IC50 values are determined for compounds that meet these criteria by titrating compound stock at a final starting concentration of 30 μM using a 3-fold serial dilution for 11 points. Curves are generated by fitting each data set to a four-parameter logistic equation using nonlinear regression.

Assay [2] concerns the target T1, human TRPC6. Description: High Throughput Screening Assay Method 2 (membrane potential dye, GSK1702934A agonist, HEK293 stably transfected with human TRPC6). The assay is classed as cell-based. Conditions: antagonist effect against human TRPC6, 3 μM GSK1702934A agonist, HEK293 TRPC6 cells, read-out: Fluorescence TRPC6 IC50.
Description: as §1
The commercially available HEK293 cell line (ATCC) was stably transfected with an human TRPC6 gene construct in pcDNA3.1(+) (Thermo Fisher) and screened to find a clone with TRPC6 expression. These cells were maintained in growth medium recommended by the manufacturer supplemented with 400 μg/ml G418 to promote retention of the TRPC6 construct. After growing to near confluency, cells were plated at a density of 15,000 cells/well in clear bottom black walled poly-D-Lys coated 384-well tissue culture treated plates (TwinHelix, cat. #GR 4332 CPL) in growth medium lacking G418, and allowed to grow for 24 hrs. Growth media was removed from the wells and cells were then loaded with 20 μL of 0.5× Membrane Potential sensitive dye (Molecular Devices) in the presence of 30 μM BAPTA-AM (Invitrogen) in Tyrode's assay buffer (130 mM NaCl, 5 mM KCl, 0.15 mM CaCl2), 1 mM MgCl2, 5 mM NaHCO3, 20 mM HEPES, pH 7.4) and incubated for 60 min at room temperature in the dark. Ten μL/well of test compound or controls was added to the wells with the FLIPR^TETRA (Molecular Devices) and incubated for 5 minutes. Compounds were tested at eight concentrations (10, 3.16, 1, 0.316, 0.1, 0.0316, 0.01 and 0.00316 μM diluted in Tyrode's assay buffer and 0.5% DMSO, final concentration) with inter-plate duplicate data points. Subsequently, 15 μL/well of GSK1702934A agonist in Tyrode's assay buffer was added to a final concentration of 3 μM by the FLIPR^TETRA and the signal of the emitted fluorescence (Excitation: 510-545 nm, Emission: 565-625 nm) was recorded for 3 minutes. Negative and positive controls were included on each plate. Negative controls wells consisted of cells exposed to Tyrode's assay buffer and agonist solution, but no test compound. Positive control consisted of cells exposed to […] Verapamil hydrochloride (Tocris, cat. #0654) diluted in Tyrode's assay buffer and 0.5% DMSO final concentration and agonist solution. Inhibition was expressed as a percentage of control, with 0% activity being a result in which the response value of the test wells reached a level identical to the wells containing Verapamil plus GSK1702934A and 100% activity being a result in which the response value of the test wells reached a level identical to the wells containing GSK1702934A alone. Genedata Screener® 14.0.6 was used for data analysis to fit IC50 curves.

One may read the IC50 as the midpoint of a concentration-inhibition curve. With `Nc1ccc(C2CCN(C(=O)c3ccc(Oc4ccccc4)cc3)CC2)cn1` [Compound 1, 5-[1-(4-phenoxybenzoyl)piperidin-4-yl]pyridin-2-amine], the 50% inhibitory concentration (IC50) at human TRPC6 [1] was 326 nM.

Regarding `Nc1ccc(C2CCN(C(=O)c3ccc(Oc4ccc(C(F)(F)F)cc4)cc3)CC2)nn1` [Compound 2, 6-(1-{4-[4-(trifluoromethyl)phenoxy]benzoyl}piperidin-4-yl)pyridazin-3-amine], the IC50 at human TRPC6 [1] was 504 nM.

Turning to `Nc1ccc(C2CCN(C(=O)c3ccc(Oc4ccccc4)cc3)CC2)nn1` [Compound 3, 6-[1-(4-phenoxybenzoyl)piperidin-4-yl]pyridazin-3-amine], on human TRPC6 [1], the IC50 amounted to 39 nM.

With `Nc1ccc(C2CCN(C(=O)c3ccc(Oc4ccc(OC(F)(F)F)cc4)cc3)CC2)nn1` [Compound 4, 6-(1-{4-[4-(trifluoromethoxy)phenoxy]benzoyl}piperidin-4-yl)pyridazin-3-amine], the IC50 at human TRPC6 [1] was determined as 351 nM.

On to `Cc1ccc(Oc2ccc(C(=O)N3CCC(c4ccc(N)nn4)CC3)cc2)cc1` [Compound 5, 6-{1-[4-(4-methylphenoxy)benzoyl]piperidin-4-yl}pyridazin-3-amine], for which, at human TRPC6 [1], the IC50 was 372 nM.

As for `Nc1ccc(N2CCN(C(=O)c3ccc(Oc4ccc(C5CC5)cc4)cc3)CC2)nn1` [Compound 6, 6-{4-[4-(4-cyclopropylphenoxy)benzoyl]piperazin-1-yl}pyridazin-3-amine], the IC50 at human TRPC6 [1] came out at 540 nM.

In the case of `COc1cc(N)ncc1C1CCN(C(=O)c2ccc(OCC3CCCCC3)cc2F)CC1` [Compound 41, 5-{1-[4-(Cyclohexylmethoxy)-2-fluorobenzoyl]piperidin-4-yl}-4-methoxypyridin-2-amine], on human TRPC6 [2], the IC50 was 2170 nM.

With `COc1cc(N)ncc1C1CCN(C(=O)c2ccc(OCCC3CC3)cc2F)CC1` [Compound 42, 5-{1-[4-(2-Cyclopropylethoxy)-2-fluorobenzoyl]piperidin-4-yl}-4-methoxypyridin-2-amine], on human TRPC6 [2], the IC50 is 789 nM.

Regarding `COc1cc(N)ncc1C1CCN(C(=O)c2ccc(OCc3ccccc3)cc2F)CC1` [Compound 43, 5-{1-[4-(Benzyloxy)-2-fluorobenzoyl]piperidin-4-yl}-4-methoxypyridin-2-amine], at human TRPC6 [2], the concentration for half-maximal inhibition (IC50) stood at 1810 nM.

For the compound `COc1cc(C(=O)N2CCC(c3cnc(N)cc3OC)CC2)ccc1OCC1CCC1` [Compound 44, 5-{1-[4-(Cyclobutylmethoxy)-3-methoxybenzoyl]piperidin-4-yl}-4-methoxypyridin-2-amine], the IC50 on human TRPC6 [2] amounted to 199 nM.

Take `Nc1ccc(C2CCN(C(=O)c3cc(F)c(Oc4ccc(F)cc4)cc3F)CC2)nn1` [Compound 45, 6-{1-[2,5-Difluoro-4-(4-fluorophenoxy)benzoyl]piperidin-4-yl}pyridazin-3-amine]: the IC50 at human TRPC6 [2] came to 61 nM.

For `Nc1ccc(C2CCN(C(=O)c3ccc(Oc4ccc(F)cc4)cc3F)CC2)nn1` [Compound 46, 6-{1-[2-Fluoro-4-(4-fluorophenoxy)benzoyl]piperidin-4-yl}pyridazin-3-amine], at human TRPC6 [2], the half-inhibitory concentration (IC50) came to 57 nM.

Regarding `COc1cc(C(=O)N2CCC(c3ccc(N)nn3)CC2)c(F)cc1Oc1ccc(F)cc1` [Compound 47, 6-{1-[2-Fluoro-4-(4-fluorophenoxy)-5-methoxybenzoyl]piperidin-4-yl}pyridazin-3-amine], at human TRPC6 [2], the IC50 came to 34 nM.

As to `Nc1ccc(C2CCN(C(=O)c3ccc(Oc4ccc(F)cc4)c(F)c3)CC2)nn1` [Compound 48, 6-{1-[3-Fluoro-4-(4-fluorophenoxy)benzoyl]piperidin-4-yl}pyridazin-3-amine], the IC50 at human TRPC6 [2] stood at 141 nM.

As to `Nc1ccc(C2CCN(C(=O)c3ccc(Oc4ccccc4)c(C(F)(F)F)c3)CC2)nn1` [Compound 49, 6-{1-[4-Phenoxy-3-(trifluoromethyl)benzoyl]piperidin-4-yl}pyridazin-3-amine], the IC50 on human TRPC6 [2] is 1160 nM.

In the case of `Cc1cc(C2CCN(C(=O)c3ccc(Oc4ccc(F)cc4)cc3)CC2)nnc1N` [Compound 50, 6-{1-[4-(4-Fluorophenoxy)benzoyl]piperidin-4-yl}-4-methylpyridazin-3-amine], on human TRPC6 [2], the IC50 was found to be 288 nM.

`COc1cc(C(=O)N2CCC(c3nnc(N)cc3C)CC2)c(F)cc1Oc1ccc(F)cc1` [Compound 51, 6-{1-[2-Fluoro-4-(4-fluorophenoxy)-5-methoxybenzoyl]piperidin-4-yl}-5-methylpyridazin-3-amine]: the half-maximal inhibitory concentration (IC50) on human TRPC6 [2] is 182 nM.

Regarding `Nc1ccc([C@@H]2CCN(C(=O)c3cc(F)c(Oc4ccc(F)cc4)cc3F)[C@H](CO)C2)nn1` [Compound 52b, [(2S,4R)-4-(6-Aminopyridazin-3-yl)-1-[2,5-difluoro-4-(4-fluorophenoxy)benzoyl]piperidin-2-yl]methanol], the half-maximal inhibitory concentration (IC50) at human TRPC6 [2] was 80 nM.

Consider `COc1cc(N)ncc1C1CCN(C(=O)c2ccc(OCc3ccon3)cc2F)CC1` [Compound 53, 5-(1-{2-Fluoro-4-[(1,2-oxazol-3-yl)methoxy]benzoyl}piperidin-4-yl)-4-methoxypyridin-2-amine], for which the concentration for half-maximal inhibition (IC50) at human TRPC6 [2] worked out at 641 nM.

For `COc1cc(N)ncc1C1CCN(C(=O)c2ccc(OCc3nccs3)cc2F)CC1` [Compound 54, 5-(1-{2-Fluoro-4-[(1,3-thiazol-2-yl)methoxy]benzoyl}piperidin-4-yl)-4-methoxypyridin-2-amine], on human TRPC6 [2], the half-maximal inhibitory concentration (IC50) came out at 1190 nM.
